In the supplement of paper PMC11781733:
Where a name gives a salt, the structure may show the parent alone.

Assays:
Conditions in all cases: exposure time: 15 min to 3 h acute
Dugesia japonica [1] = assay: crawl-out incidence (% planarians); higher = higher incidence or increase relative to vehicle control
Procedure: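 Adult asexual Dugesia japonica planarians (1 per well, 48-well plate, n=24 over technical triplicates) were exposed acutely (15 min to 3 h) to each compound (0.5% DMSO or water vehicle) and screened on a robotic platform for crawl-out, stickiness, body shape, phototaxis, noxious-heat scrunching and locomotion endpoints. Binary endpoints are incidence rate x100. Continuous endpoints are the median response normalised to the plate vehicle median, as % change or difference. Negative incidences after vehicle subtraction were set to 0.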

Dugesia japonica [2] = assay: speed in dark vs vehicle (% change vs vehicle); higher = higher incidence or increase relative to vehicle control
Procedure: (§1)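 Adult asexual Dugesia japonica planarians (1 per well, 48-well plate, n=24 over technical triplicates) were exposed acutely (15 min to 3 h) to each compound (0.5% DMSO or water vehicle) and screened on a robotic platform for crawl-out, stickiness, body shape, phototaxis, noxious-heat scrunching and locomotion endpoints. Binary endpoints are incidence rate x100 normalised to in-plate vehicle controls. Continuous endpoints are the median response normalised to the plate vehicle median, as % change or difference. Negative incidences after vehicle subtraction were set to 0.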

Dugesia japonica [3] = assay: C-shape incidence (% planarians (vehicle-normalised)); higher = higher incidence or increase relative to vehicle control
Procedure: as §1

Dugesia japonica [4] = assay: corkscrew incidence (% planarians (vehicle-normalised)); higher = higher incidence or increase relative to vehicle control
Procedure: as §1

Dugesia japonica [5] = assay: stickiness incidence (% planarians (vehicle-normalised)); higher = higher incidence or increase relative to vehicle control
Procedure: as §1

Dugesia japonica [6] = assay: hyperkinesis incidence (% planarians (vehicle-normalised)); higher = higher incidence or increase relative to vehicle control
Procedure: as §1

Dugesia japonica [7] = assay: speed first 30 s blue light vs vehicle (% change vs vehicle); higher = higher incidence or increase relative to vehicle control
Procedure: as §1

Dugesia japonica [8] = assay: speed second 30 s blue light vs vehicle (% change vs vehicle); higher = higher incidence or increase relative to vehicle control
Procedure: as §1

Dugesia japonica [9] = assay: pharynx extrusion incidence (% planarians (vehicle-normalised)); higher = higher incidence or increase relative to vehicle control
Procedure: as §1

Dugesia japonica [10] = assay: loss of phototaxis incidence (% planarians (vehicle-normalised)); higher = higher incidence or increase relative to vehicle control
Procedure: as §1

Dugesia japonica [11] = assay: total locomotor bursts minus vehicle (bursts difference vs vehicle); higher = higher incidence or increase relative to vehicle control
Procedure: as §1

Dugesia japonica [12] = assay: noxious heat displacement strength vs vehicle (% change vs vehicle); higher = higher incidence or increase relative to vehicle control
Procedure: as §1

Dugesia japonica [13] = assay: contracted body shape incidence (% planarians (vehicle-normalised)); higher = higher incidence or increase relative to vehicle control
Procedure: as §1

Dugesia japonica [14] = assay: anxiety (time in outer well region) vs vehicle (% change vs vehicle); higher = higher incidence or increase relative to vehicle control
Procedure: as §1

Dugesia japonica [15] = assay: any abnormal body shape incidence (% planarians (vehicle-normalised)); higher = higher incidence or increase relative to vehicle control
Procedure: as §1

Dugesia japonica [16] = assay: resting fraction in dark vs vehicle (difference in fraction x100 vs vehicle); higher = higher incidence or increase relative to vehicle control
Procedure: as §1

Dugesia japonica [17] = assay: loss of heat-induced scrunching incidence (% planarians (vehicle-normalised)); higher = higher incidence or increase relative to vehicle control
Procedure: as §1

Dugesia japonica [18] = assay: resting fraction in blue light vs vehicle (difference in fraction x100 vs vehicle); higher = higher incidence or increase relative to vehicle control
Procedure: as §1

SMILES | crawl-out incidence (Dugesia japonica [1]) | speed in dark (Dugesia japonica [2]) | C-shape incidence (Dugesia japonica [3]) | corkscrew incidence (Dugesia japonica [4]) | stickiness incidence (Dugesia japonica [5]) | hyperkinesis incidence (Dugesia japonica [6]) | speed first 30 s blue light (Dugesia japonica [7]) | speed second 30 s blue light (Dugesia japonica [8]) | pharynx extrusion incidence (Dugesia japonica [9]) | loss of phototaxis incidence (Dugesia japonica [10]) | total locomotor bursts minus vehicle (Dugesia japonica [11]) | noxious heat displacement strength (Dugesia japonica [12]) | contracted body shape incidence (Dugesia japonica [13]) | anxiety (Dugesia japonica [14]) | any abnormal body shape incidence (Dugesia japonica [15]) | resting fraction in dark (Dugesia japonica [16]) | loss of heat-induced scrunching incidence (Dugesia japonica [17]) | resting fraction in blue light (Dugesia japonica [18])
O=C1CC2(CCCC2)CC(=O)N1CCCCN1CCN(c2ncccn2)CC1 [buspirone] (10 µM) | 0 | -20.5 | 0 | 0 | 16.7 | 20.8 | -68.5 | -54.8 | 0 | 25 | 6.25 | -46.4 | 4.17 | -1.55 | 20.8 | 16.7 | 8.33 | 26.6
O=C1CC2(CCCC2)CC(=O)N1CCCCN1CCN(c2ncccn2)CC1 [buspirone] (31.6 µM) | 0 | -11.1 | 0 | 0 | 16.7 | 16.7 | -64.5 | -74.1 | 0 | 54.2 | 3.5 | -57 | 0 | 7.76 | 16.7 | 3.7 | 62.5 | 34.3
O=C1CC2(CCCC2)CC(=O)N1CCCCN1CCN(c2ncccn2)CC1 [buspirone] (100 µM) | 12.5 | -41 | 0 | 4.76 | 19.1 | 4.76 | -79.9 | -81.2 | 0 | 42.9 | 0.5 | -53.2 | 0 | -20.5 | 9.52 | 43 | 57.1 | 44.9
CN(C)CCCC1(c2ccc(F)cc2)OCc2cc(C#N)ccc21 (stereo not given) [citalopram hydrobromide] (31.6 µM) | 0 | 3.2 | 0 | 0 | ≤ 0 | 16.7 | 6.16 | -6.94 | 0 | 16.7 | 1.25 | -16.4 | 0 | 4.85 | 16.7 | 1.41 | 33.3 | 0
CN(C)CCCC1(c2ccc(F)cc2)OCc2cc(C#N)ccc21 (stereo not given) [citalopram hydrobromide] (100 µM) | 0 | -4.27 | 0 | 0 | 8.33 | 8.33 | -6.21 | -0.52 | 0 | ≤ 0 | 1.5 | -22.5 | 0 | 15.3 | 8.33 | 1.35 | 25 | 0
CN(C)CCCC1(c2ccc(F)cc2)OCc2cc(C#N)ccc21 (stereo not given) [citalopram hydrobromide] (316 µM) | 0 | 10.9 | 0 | 0 | 8.7 | 13 | 1.47 | 6.83 | 0 | 4.35 | -3.5 | -25.1 | 0 | 12.2 | 13 | 1.16 | 13 | 0.559
CN(C)CCCC1(c2ccc(F)cc2)OCc2cc(C#N)ccc21 (stereo not given) [citalopram hydrobromide] (1000 µM) | 0 | -48.7 | 0 | 0 | ≤ 0 | 83.3 | -57.3 | -71.1 | 0 | 16.7 | 40.2 | -42.7 | 0 | 11.2 | 83.3 | 17.8 | 8.33 | 16.8
CN1CCN(C2=Nc3cc(Cl)ccc3Nc3ccccc32)CC1 [clozapine] (3.16 µM) | 0 | -74 | 0 | 4.17 | 20.8 | 20.8 | -90.3 | -87.9 | 0 | 16.7 | 26.8 | -40.6 | 8.33 | -27.9 | 20.8 | 74.7 | 33.3 | 69.7
CN1CCN(C2=Nc3cc(Cl)ccc3Nc3ccccc32)CC1 [clozapine] (10 µM) | 0 | -75.7 | 4.17 | 4.17 | 25 | 54.2 | -89.8 | -90.5 | 0 | 29.2 | 15.2 | -39.6 | 8.33 | -100 | 58.3 | 73.9 | 75 | 70.9
CN1CCN(C2=Nc3cc(Cl)ccc3Nc3ccccc32)CC1 [clozapine] (31.6 µM) | 0 | -76.4 | 29.2 | 29.2 | ≤ 0 | 50 | -93.4 | -91.3 | 0 | 54.2 | -3 | -34.2 | 4.17 | -27.4 | 87.5 | 77.6 | 66.7 | 75.8
CN1CCN(C2=Nc3cc(Cl)ccc3Nc3ccccc32)CC1 [clozapine] (100 µM) | 0 | -79.5 | 57.1 | 9.52 | ≤ 0 | 23.8 | -96.9 | -96.2 | 0 | 62.5 | -4.5 | -29.6 | 28.6 | -11.2 | 81 | 77.6 | 79.2 | 87.8
CN1C(=O)CN=C(c2ccccc2)c2cc(Cl)ccc21 [diazepam] (3.16 µM) | 0 | 16.7 | 0 | 0 | ≤ 0 | 0 | 21.1 | -4.64 | 0 | 41.7 | -3 | -6.66 | 0 | -3.35 | 0 | -5.99 | 29.2 | -0.17
CN1C(=O)CN=C(c2ccccc2)c2cc(Cl)ccc21 [diazepam] (10 µM) | 0 | 15.9 | 0 | 0 | 21.7 | 0 | 0.43 | -16.1 | 0 | 50 | -1 | -17.4 | 0 | 0.94 | 0 | -5.91 | 12.5 | 0.83
CN1C(=O)CN=C(c2ccccc2)c2cc(Cl)ccc21 [diazepam] (31.6 µM) | 0 | -43.7 | 25 | 4.17 | 16.7 | 8.33 | -43.1 | -63 | 25 | 8.33 | 6.5 | -21.6 | 8.33 | -8.02 | 41.7 | 56.8 | 16.7 | 17.2
CN1C(=O)CN=C(c2ccccc2)c2cc(Cl)ccc21 [diazepam] (100 µM) | 0 | -72.2 | 62.5 | 20.8 | ≤ 0 | 16.7 | -84.2 | -87.6 | 37.5 | 29.2 | 55 | -45.6 | 12.5 | -36.9 | 100 | 48.6 | 37.5 | 50.2
